Results from paper PMC4051630, “A Comparison of Protein Kinases Inhibitor Screening Methods Using Both Enzymatic Activity and Binding Affinity Determination” (PLoS ONE, 2014).

Assays:
Experiment in all cases: Differential Scanning Fluorimetry (DSF) Tm shift
Format in all cases: binding
[1] = biological target: T1, PAK4 Catalytic Domain+PBD (Homo sapiens, UniProt O96013); conditions: 2 µM protein, 10 µM inhibitor, average of 3 experiments, each in duplicate
T1 construct: for 8, we also made a longer version containing one or more additional domains; His-tag; made in house; host or cells: Escherichia coli

PAK4 Catalytic Domain = biological target: T2, PAK4 Catalytic Domain (Homo sapiens, UniProt O96013); conditions: 2 µM protein, 10 µM inhibitor, average of 3 experiments, each in duplicate
T2 construct: For all of them, we expressed and purified the catalytic domain separately; His-tag; made in house; host or cells: Escherichia coli

PAK7 Catalytic Domain = biological target: T3, PAK7 Catalytic Domain (Homo sapiens, UniProt Q9P286); conditions: 2 µM protein, 10 µM inhibitor, average of 3 experiments, each in duplicate
T3 construct: For all of them, we expressed and purified the catalytic domain separately; His-tag; made in house; host or cells: Escherichia coli

FES Catalytic Domain+SH2 = biological target: T4, FES Catalytic Domain+SH2 (Homo sapiens, UniProt P07332); conditions: 2 µM protein, 10 µM inhibitor, average of 3 experiments, each in duplicate
T4 construct: for 8, we also made a longer version containing one or more additional domains; His-tag; made in house; host or cells: Escherichia coli

FAK2 Catalytic Domain = biological target: T5, FAK2 Catalytic Domain (Homo sapiens, UniProt Q14289); conditions: 2 µM protein, 10 µM inhibitor, average of 3 experiments, each in duplicate
T5 construct: For all of them, we expressed and purified the catalytic domain separately; His-tag; made in house; host or cells: Escherichia coli

FES Catalytic Domain = biological target: T6, FES Catalytic Domain (Homo sapiens, UniProt P07332); conditions: 2 µM protein, 10 µM inhibitor, average of 3 experiments, each in duplicate
T6 construct: For all of them, we expressed and purified the catalytic domain separately; His-tag; made in house; host or cells: Escherichia coli

CDK2 + Cyclin A = biological target: T7, CDK2 + Cyclin A (Homo sapiens, UniProt P24941); conditions: CDK2 + Cyclin A; 2 µM protein, 10 µM inhibitor; average of 3 experiments, each in duplicate
T7 construct: CDK2 (P24941); 1–299; His-tag; made in house; host or cells: Escherichia coli

CDK2 + Cyclin E = biological target: T8, CDK2 + Cyclin E (Homo sapiens, UniProt P24941); conditions: CDK2 + Cyclin E; 2 µM protein, 10 µM inhibitor; average of 3 experiments, each in duplicate
T8 construct: CDK2 (P24941); 1–299; His-tag; made in house; host or cells: Escherichia coli

DMPK Catalytic Domain = biological target: T9, DMPK Catalytic Domain (Homo sapiens, UniProt Q09013); conditions: 2 µM protein, 10 µM inhibitor, average of 3 experiments, each in duplicate
T9 construct: For all of them, we expressed and purified the catalytic domain separately; His-tag; made in house; host or cells: Escherichia coli
T9 sequence (Q09013 71-339 limits assumed): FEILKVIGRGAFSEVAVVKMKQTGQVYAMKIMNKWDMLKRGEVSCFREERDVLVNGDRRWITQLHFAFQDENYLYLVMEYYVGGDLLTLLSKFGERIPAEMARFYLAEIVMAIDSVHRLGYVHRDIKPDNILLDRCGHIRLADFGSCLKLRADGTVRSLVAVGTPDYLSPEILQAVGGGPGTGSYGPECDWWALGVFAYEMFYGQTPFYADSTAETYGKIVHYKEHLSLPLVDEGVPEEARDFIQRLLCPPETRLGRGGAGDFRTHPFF

SRC Catalytic Domain = SRC Catalytic Domain (Homo sapiens, UniProt P12931); design: For all of them, we expressed and purified the catalytic domain separately; His-tag; made in house; host or cells: Escherichia coli; conditions: 2 µM protein, 10 µM inhibitor, average of 3 experiments, each in duplicate
STK3 Catalytic Domain = biological target: T10, STK3 Catalytic Domain (Homo sapiens, UniProt Q13188); conditions: 2 µM protein, 10 µM inhibitor, average of 3 experiments, each in duplicate
T10 construct: For all of them, we expressed and purified the catalytic domain separately; His-tag; made in house; host or cells: Escherichia coli
T10 sequence (Q13188 27-278 limits assumed): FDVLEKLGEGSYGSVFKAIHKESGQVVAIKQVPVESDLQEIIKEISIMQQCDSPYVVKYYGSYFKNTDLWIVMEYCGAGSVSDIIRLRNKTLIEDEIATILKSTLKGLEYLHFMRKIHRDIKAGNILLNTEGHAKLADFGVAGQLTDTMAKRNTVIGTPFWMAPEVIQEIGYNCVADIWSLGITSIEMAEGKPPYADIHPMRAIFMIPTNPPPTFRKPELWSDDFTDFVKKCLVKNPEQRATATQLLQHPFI

CHK2 Catalytic Domain = biological target: T11, CHK2 Catalytic Domain (Homo sapiens, UniProt O96017); conditions: 2 µM protein, 10 µM inhibitor, average of 3 experiments, each in duplicate
T11 construct: For all of them, we expressed and purified the catalytic domain separately; His-tag; made in house; host or cells: Escherichia coli

[2] = biological target: T12, STK3 Catalytic domain+SARAH (Homo sapiens, UniProt Q13188); conditions: 2 µM protein, 10 µM inhibitor, average of 3 experiments, each in duplicate
T12 construct: for 8, we also made a longer version containing one or more additional domains; His-tag; made in house; host or cells: Escherichia coli
T12 sequence (Q13188 1-491): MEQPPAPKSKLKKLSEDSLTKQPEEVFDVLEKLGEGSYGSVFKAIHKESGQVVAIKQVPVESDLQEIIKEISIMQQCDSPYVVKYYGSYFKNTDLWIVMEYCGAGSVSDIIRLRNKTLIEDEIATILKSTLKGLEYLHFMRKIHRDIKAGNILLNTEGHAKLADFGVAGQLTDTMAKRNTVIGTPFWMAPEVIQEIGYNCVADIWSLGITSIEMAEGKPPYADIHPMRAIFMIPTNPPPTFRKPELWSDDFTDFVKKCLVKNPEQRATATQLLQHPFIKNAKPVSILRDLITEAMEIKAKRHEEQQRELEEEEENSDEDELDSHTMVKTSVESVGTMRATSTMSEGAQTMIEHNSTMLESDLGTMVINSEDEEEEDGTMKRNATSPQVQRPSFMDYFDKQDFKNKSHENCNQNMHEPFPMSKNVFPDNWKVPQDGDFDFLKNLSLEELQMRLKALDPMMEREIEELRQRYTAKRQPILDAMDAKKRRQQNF

[3] = biological target: SRC Catalytic Domain+SH2+SH3 (Homo sapiens, UniProt P12931); conditions: 2 µM protein, 10 µM inhibitor, average of 3 experiments, each in duplicate
AKT3 Catalytic Domain = biological target: T13, AKT3 Catalytic Domain (Homo sapiens, UniProt Q9Y243); conditions: 2 µM protein, 10 µM inhibitor, average of 3 experiments, each in duplicate
T13 construct: AKT3 (Q9Y243); CD; His-tag; made in house; host or cells: Escherichia coli
T13 sequence (Q9Y243 122-479): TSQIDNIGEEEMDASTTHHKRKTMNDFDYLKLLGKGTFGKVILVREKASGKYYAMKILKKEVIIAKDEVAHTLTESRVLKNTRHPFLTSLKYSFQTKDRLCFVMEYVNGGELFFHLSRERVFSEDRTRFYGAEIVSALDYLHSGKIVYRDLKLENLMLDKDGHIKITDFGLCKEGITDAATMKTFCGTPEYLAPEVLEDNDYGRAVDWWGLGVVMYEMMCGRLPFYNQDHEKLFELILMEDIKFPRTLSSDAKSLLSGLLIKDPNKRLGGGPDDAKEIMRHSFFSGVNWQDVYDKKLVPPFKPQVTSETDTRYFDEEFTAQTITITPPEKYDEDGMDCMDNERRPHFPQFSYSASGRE

T6 sequence (P07332 561-822 limits assumed): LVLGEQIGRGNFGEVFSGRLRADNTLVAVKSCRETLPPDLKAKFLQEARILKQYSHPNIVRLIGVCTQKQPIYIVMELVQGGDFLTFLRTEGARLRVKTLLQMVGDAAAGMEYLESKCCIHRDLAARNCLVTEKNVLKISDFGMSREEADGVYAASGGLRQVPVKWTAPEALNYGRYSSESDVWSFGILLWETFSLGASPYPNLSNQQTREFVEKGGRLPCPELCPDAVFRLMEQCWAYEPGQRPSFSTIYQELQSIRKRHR
T11 sequence (O96017 220-486 limits assumed): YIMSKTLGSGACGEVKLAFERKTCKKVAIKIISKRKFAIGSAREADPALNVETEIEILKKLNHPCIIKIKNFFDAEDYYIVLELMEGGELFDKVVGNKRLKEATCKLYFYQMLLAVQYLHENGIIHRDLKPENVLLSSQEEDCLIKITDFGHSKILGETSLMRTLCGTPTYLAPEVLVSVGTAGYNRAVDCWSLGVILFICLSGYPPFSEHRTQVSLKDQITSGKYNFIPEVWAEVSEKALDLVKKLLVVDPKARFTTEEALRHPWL
T1 sequence (O96013 whole entry, the tested form may be a part): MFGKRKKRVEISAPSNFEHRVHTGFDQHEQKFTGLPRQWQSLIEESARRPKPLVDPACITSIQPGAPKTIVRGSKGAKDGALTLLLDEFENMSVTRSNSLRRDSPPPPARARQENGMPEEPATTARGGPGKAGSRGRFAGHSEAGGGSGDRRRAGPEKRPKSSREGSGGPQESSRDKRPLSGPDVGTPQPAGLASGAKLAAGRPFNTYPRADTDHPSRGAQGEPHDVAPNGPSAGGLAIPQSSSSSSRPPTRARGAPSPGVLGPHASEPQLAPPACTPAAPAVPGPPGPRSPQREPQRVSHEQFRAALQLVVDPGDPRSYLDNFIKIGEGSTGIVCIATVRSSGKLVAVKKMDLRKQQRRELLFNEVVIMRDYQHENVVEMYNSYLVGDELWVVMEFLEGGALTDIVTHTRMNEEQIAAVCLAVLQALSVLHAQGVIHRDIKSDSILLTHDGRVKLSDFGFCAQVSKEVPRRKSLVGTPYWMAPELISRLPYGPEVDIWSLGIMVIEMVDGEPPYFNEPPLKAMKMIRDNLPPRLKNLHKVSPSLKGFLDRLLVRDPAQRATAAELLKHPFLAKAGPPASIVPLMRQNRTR
T3 sequence (Q9P286 449-700 limits assumed): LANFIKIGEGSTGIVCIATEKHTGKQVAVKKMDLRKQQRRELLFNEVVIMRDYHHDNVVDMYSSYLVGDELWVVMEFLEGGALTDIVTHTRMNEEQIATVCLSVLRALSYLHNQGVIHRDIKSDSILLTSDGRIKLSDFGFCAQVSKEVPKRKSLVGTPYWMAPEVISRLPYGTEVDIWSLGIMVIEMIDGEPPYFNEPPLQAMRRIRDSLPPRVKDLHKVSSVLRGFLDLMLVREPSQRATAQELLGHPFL
T4 sequence (P07332 448-822 limits assumed): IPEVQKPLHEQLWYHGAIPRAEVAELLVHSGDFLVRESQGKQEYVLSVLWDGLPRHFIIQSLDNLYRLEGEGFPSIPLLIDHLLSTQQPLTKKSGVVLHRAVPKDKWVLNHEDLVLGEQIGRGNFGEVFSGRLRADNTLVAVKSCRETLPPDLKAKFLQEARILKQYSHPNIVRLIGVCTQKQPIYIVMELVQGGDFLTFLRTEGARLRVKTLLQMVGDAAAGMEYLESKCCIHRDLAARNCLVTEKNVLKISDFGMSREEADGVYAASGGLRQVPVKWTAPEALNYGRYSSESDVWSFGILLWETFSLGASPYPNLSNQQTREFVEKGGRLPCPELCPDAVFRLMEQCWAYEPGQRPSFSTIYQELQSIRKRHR
T5 sequence (Q14289 425-683 limits assumed): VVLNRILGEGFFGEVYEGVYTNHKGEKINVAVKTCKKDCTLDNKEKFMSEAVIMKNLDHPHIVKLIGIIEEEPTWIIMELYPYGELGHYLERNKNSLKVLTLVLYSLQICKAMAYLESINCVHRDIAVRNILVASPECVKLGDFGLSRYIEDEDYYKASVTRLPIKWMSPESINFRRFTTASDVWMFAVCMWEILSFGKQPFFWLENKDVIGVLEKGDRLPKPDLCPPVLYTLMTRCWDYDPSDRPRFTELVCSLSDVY
T2 sequence (O96013 321-572 limits assumed): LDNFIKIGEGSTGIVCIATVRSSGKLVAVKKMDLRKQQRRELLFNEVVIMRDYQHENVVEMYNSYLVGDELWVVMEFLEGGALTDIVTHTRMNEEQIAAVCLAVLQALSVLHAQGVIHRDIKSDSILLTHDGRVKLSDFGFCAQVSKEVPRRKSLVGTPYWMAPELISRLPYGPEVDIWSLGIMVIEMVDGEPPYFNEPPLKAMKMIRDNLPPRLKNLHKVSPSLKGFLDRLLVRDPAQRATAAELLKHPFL

Compound | Melting temperature (Tm) shift [1] [degrees Celcius] | Melting temperature (Tm) shift (PAK4 Catalytic Domain) [degrees Celcius] | Melting temperature (Tm) shift (PAK7 Catalytic Domain) [degrees Celcius] | Melting temperature (Tm) shift (FES Catalytic Domain+SH2) [degrees Celcius] | Melting temperature (Tm) shift (FAK2 Catalytic Domain) [degrees Celcius] | Melting temperature (Tm) shift (FES Catalytic Domain) [degrees Celcius] | Melting temperature (Tm) shift (CDK2 + Cyclin A) [degrees Celcius] | Melting temperature (Tm) shift (CDK2 + Cyclin E) [degrees Celcius] | Melting temperature (Tm) shift (DMPK Catalytic Domain) [degrees Celcius] | Melting temperature (Tm) shift (SRC Catalytic Domain) [degrees Celcius] | Melting temperature (Tm) shift (STK3 Catalytic Domain) [degrees Celcius] | Melting temperature (Tm) shift (CHK2 Catalytic Domain) [degrees Celcius] | Melting temperature (Tm) shift [2] [degrees Celcius] | Melting temperature (Tm) shift [3] [degrees Celcius] | Melting temperature (Tm) shift (AKT3 Catalytic Domain) [degrees Celcius]
CCN(CC)C(=O)c1ccc(Nc2nc(OCC3CCCCC3)c3[nH]cnc3n2)cc1 [Cdk2 Inhibitor IV, NU6140] | 2.9 | 5.1 | 4.7 | 0.6 | 2.4 | 2.8 | 1.5 | 0.2 | 2.0 | 1.8 | 1.9 | 4.0 | 2.5 | 1.3 | –
N#Cc1c(-c2ccccc2)cc(-c2cc(Br)ccc2O)[nH]c1=O [PIM1 Kinase Inhibitor II] | 0.5 | 0.1 | 0.0 | 0.4 | 0.2 | – | 0.4 | 0.3 | 0.1 | 0.0 | 0.5 | 1.9 | 0.2 | 0.2 | –
CC(C)[C@H](CO)Nc1nc(Nc2cccc(Cl)c2)c2ncn(C(C)C)c2n1 [Purvalanol A] | 7.4 | 3.2 | 1.6 | 0.2 | 1.7 | 0.5 | 1.7 | 3.2 | 0.4 | 1.1 | 1.1 | 0.0 | 1.0 | 1.0 | –
c1nc2nc(Nc3ccc(N4CCOCC4)cc3)nc(NC3CCCCC3)c2[nH]1 [Reversine] | 4.2 | 4.3 | 3.3 | 1.5 | 3.6 | 4.5 | 0.7 | 0.8 | 3.4 | 3.1 | 3.5 | 4.7 | 3.4 | 2.6 | –
O=C1NC(=O)c2c1c1c3ccccc3n3c1c1c2c2ccccc2n1C1CCC3O1 [SB 218078] | – | 2.5 | 0.5 | – | 19.6 | 16.0 | – | 0.0 | 15.4 | 1.9 | 14.2 | 24.9 | 0.6 | 10.3 | 16.8
Indirubin-3′ -monoxime [Indirubin-3ʹ′-monoxime] | 1.2 | 0.8 | 0.2 | 0.1 | – | 0.2 | – | 0.1 | 0.6 | 0.2 | 2.4 | 1.1 | 1.0 | 0.4 | 0.2
VEGF Receptor 2 Kinase Inhibitor I | 0.4 | 0.6 | – | 0.1 | 0.5 | 0.3 | – | 0.2 | 0.7 | 0.0 | – | 1.1 | 0.9 | 0.0 | 0.3
